Data: publication PMC7180948, “New Insights into 4-Anilinoquinazolines as Inhibitors of Cardiac Troponin I–Interacting Kinase (TNNi3K)” (Molecules, 2020)

How the values were obtained:
Assay in all cases: biochemical
Set-up in all cases: KINOMEscan competition binding panel (Eurofins DiscoverX), single concentration, % inhibition
Settings in all cases: read-out: 7 at 1 µM % inhibition
[1] = target: MKNK1 (Homo sapiens, UniProt Q9BUB5)
Summary of the method: (§1)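 A single 1 µM concentration of each compound is screened across upwards of 400 human kinases using the KINOMEscan format.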

[2] = target: RET(M918T) (Homo sapiens, UniProt P07949, M918T)
Chain of RET(M918T) (P07949 whole entry M918T): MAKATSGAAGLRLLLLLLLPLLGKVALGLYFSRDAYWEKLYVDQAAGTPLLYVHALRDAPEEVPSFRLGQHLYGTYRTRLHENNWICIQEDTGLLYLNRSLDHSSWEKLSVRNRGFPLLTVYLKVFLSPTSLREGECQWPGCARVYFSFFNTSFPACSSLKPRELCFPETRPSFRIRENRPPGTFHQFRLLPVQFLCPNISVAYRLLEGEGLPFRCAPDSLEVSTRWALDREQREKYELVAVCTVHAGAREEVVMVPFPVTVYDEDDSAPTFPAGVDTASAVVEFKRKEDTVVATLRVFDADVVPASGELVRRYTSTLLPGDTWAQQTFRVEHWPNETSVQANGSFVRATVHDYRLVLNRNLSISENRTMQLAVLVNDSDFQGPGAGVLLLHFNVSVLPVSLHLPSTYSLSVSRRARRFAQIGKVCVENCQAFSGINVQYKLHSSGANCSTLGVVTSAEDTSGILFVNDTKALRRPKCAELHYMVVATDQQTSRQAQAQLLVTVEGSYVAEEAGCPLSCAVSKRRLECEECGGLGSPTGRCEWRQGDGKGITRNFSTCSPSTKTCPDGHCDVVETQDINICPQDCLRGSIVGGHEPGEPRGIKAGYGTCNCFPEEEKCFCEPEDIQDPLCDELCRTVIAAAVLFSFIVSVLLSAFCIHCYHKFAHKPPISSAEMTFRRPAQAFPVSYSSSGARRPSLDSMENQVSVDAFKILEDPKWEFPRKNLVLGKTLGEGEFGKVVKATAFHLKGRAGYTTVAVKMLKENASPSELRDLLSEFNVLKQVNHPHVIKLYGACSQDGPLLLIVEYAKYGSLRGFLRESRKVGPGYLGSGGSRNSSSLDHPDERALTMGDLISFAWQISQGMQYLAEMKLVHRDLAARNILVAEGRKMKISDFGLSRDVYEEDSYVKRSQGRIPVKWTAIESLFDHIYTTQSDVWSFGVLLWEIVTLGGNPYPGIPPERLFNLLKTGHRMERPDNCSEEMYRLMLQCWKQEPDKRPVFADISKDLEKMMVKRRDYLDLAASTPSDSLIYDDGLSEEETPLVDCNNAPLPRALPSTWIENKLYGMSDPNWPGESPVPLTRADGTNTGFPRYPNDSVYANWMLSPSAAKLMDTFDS
Summary of the method: as §1

[3] = target: CAMKK1 (Homo sapiens, UniProt Q8N5S9)
Summary of the method: as §1

[4] = target: GSK3A (Homo sapiens, UniProt P49840)
Chain of GSK3A (P49840 whole entry): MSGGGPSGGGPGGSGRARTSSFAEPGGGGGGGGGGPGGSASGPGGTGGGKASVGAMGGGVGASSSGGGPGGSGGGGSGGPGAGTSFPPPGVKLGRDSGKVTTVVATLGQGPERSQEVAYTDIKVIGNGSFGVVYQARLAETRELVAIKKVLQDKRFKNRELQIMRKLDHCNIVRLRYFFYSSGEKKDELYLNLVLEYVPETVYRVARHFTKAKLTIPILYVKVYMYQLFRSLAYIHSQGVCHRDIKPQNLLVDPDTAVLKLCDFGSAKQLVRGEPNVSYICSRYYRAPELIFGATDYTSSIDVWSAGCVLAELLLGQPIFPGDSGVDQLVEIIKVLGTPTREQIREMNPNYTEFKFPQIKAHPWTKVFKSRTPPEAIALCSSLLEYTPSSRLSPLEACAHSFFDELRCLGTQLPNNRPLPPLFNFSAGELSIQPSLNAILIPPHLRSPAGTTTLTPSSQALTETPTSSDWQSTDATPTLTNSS
Summary of the method: as §1

[5] = target: ERN1 (Homo sapiens, UniProt O75460)
Chain of ERN1 (O75460 whole entry): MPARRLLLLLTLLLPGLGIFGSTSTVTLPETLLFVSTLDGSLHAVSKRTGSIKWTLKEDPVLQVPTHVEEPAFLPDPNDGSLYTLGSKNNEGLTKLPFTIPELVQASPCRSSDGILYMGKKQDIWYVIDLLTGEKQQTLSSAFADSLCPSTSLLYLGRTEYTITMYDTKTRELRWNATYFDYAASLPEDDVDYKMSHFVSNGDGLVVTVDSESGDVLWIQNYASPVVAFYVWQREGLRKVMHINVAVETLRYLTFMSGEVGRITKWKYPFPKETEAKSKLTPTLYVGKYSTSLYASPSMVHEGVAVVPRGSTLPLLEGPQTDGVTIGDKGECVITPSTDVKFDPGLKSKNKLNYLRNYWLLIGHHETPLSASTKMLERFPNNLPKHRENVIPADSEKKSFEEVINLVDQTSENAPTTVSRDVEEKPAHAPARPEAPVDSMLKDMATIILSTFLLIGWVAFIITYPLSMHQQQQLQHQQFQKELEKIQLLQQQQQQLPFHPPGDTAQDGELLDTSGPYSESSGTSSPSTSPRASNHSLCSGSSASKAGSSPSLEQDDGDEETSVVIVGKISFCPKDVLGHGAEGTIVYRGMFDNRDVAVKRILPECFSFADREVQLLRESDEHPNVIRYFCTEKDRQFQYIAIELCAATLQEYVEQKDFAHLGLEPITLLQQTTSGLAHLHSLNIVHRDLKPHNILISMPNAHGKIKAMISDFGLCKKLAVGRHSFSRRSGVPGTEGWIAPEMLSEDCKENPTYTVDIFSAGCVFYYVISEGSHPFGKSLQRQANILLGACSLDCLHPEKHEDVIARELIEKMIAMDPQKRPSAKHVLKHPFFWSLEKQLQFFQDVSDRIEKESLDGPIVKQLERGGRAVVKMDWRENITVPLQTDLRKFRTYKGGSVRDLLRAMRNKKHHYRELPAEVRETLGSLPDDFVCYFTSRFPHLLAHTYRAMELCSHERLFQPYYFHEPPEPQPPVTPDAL
Summary of the method: as §1

[6] = target: PIK3CA(E545K) (Homo sapiens, UniProt P42336, E545K)
Summary of the method: as §1

[7] = target: PLK1 (Homo sapiens, UniProt P53350)
Chain of PLK1 (P53350 whole entry): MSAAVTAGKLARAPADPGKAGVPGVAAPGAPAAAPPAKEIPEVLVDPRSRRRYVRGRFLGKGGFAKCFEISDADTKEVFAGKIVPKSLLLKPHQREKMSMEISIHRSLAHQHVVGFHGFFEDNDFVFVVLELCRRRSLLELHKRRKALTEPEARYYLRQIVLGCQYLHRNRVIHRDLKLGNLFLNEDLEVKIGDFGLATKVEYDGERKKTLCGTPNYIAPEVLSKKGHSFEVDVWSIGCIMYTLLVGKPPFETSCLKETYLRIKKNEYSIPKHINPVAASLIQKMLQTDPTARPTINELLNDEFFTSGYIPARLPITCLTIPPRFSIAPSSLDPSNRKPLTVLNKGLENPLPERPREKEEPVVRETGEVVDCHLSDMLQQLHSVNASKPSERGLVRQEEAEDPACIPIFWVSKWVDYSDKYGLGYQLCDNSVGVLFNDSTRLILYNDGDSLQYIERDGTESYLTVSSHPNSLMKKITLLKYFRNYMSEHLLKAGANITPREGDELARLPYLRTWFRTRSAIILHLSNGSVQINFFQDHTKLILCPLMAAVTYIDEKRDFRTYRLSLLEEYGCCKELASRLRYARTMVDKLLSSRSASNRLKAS
Summary of the method: as §1

[8] = target: TLK1 (Homo sapiens, UniProt Q9UKI8)
Summary of the method: as §1

[9] = target: FGFR2 (Homo sapiens, UniProt P21802)
Summary of the method: as §1

[10] = target: EPHA6 (Homo sapiens, UniProt Q9UF33)
Summary of the method: as §1

[11] = target: MAP4K3 (Homo sapiens, UniProt Q8IVH8)
Summary of the method: as §1

[12] = target: AXL (Homo sapiens, UniProt P30530)
Summary of the method: as §1

[13] = target: T1, PAK7 (Homo sapiens, UniProt Q9P286)
T1 construct: gene PAK5
Summary of the method: as §1

[14] = target: ZAP70 (Homo sapiens, UniProt P43403)
Summary of the method: as §1

[15] = target: FLT4 (Homo sapiens, UniProt P35916)
Summary of the method: as §1

[16] = target: TNK2 (Homo sapiens, UniProt Q07912)
Chain of TNK2 (Q07912 whole entry): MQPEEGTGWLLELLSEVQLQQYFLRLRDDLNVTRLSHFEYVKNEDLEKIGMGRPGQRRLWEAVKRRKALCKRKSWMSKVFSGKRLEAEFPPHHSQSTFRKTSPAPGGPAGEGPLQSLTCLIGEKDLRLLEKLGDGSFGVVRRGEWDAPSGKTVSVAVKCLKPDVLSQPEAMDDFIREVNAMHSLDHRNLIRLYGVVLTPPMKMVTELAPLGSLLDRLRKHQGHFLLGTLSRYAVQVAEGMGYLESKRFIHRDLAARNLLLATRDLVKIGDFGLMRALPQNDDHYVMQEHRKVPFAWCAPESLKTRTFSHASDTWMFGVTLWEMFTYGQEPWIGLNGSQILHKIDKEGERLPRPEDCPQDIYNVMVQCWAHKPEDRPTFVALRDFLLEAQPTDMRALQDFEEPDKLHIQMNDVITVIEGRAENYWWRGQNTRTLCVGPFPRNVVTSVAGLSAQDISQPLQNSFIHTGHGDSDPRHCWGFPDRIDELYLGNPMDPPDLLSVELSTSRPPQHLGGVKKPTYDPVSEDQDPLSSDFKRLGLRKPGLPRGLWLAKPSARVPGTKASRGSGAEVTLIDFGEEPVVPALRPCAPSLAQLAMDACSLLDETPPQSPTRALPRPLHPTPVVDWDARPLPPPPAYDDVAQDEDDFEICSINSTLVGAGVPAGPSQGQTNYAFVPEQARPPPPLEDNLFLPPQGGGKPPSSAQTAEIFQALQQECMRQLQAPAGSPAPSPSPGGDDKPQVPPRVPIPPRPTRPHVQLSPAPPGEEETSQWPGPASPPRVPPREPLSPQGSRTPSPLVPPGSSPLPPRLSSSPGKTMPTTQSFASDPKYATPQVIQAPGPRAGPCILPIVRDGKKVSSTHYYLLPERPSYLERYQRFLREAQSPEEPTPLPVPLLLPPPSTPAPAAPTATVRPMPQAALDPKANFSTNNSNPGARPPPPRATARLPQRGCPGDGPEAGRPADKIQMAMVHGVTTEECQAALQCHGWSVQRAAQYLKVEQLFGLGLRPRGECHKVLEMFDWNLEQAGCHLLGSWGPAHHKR
Summary of the method: as §1

[17] = target: PIK3CA(H1047Y) (Homo sapiens, UniProt P42336, H1047Y)
Summary of the method: as §1

[18] = target: TGFBR1 (Homo sapiens, UniProt P36897)
Summary of the method: as §1

[19] = target: HASPIN (Homo sapiens, UniProt Q8TF76)
Summary of the method: as §1

[20] = target: LYN (Homo sapiens, UniProt P07948)
Summary of the method: as §1

[21] = target: T2, SgK110 (Homo sapiens, UniProt P0C264)
T2 construct: gene SBK3
Summary of the method: as §1

[22] = target: MAP3K3 (Homo sapiens, UniProt Q99759)
Summary of the method: as §1

[23] = target: PIM2 (Homo sapiens, UniProt Q9P1W9)
Summary of the method: as §1

[24] = target: DYRK1B (Homo sapiens, UniProt Q9Y463)
Chain of DYRK1B (Q9Y463 whole entry): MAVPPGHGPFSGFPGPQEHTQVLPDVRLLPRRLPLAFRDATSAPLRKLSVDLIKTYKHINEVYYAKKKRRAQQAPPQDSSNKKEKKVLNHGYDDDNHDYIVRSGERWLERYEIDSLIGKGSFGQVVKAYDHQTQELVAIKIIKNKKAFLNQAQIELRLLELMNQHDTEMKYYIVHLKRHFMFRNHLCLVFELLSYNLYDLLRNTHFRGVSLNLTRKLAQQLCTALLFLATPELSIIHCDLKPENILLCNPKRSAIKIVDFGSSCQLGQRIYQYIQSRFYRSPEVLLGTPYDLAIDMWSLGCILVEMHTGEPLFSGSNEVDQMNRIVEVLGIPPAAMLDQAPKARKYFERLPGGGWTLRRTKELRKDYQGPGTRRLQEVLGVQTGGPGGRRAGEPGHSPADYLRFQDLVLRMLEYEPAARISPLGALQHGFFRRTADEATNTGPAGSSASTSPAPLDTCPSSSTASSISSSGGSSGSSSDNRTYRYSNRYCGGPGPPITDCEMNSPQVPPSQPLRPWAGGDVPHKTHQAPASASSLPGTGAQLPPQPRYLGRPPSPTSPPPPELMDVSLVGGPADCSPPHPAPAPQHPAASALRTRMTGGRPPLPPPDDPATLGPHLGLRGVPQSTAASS
Summary of the method: as §1

[25] = target: T3, PFTAIRE2 (Homo sapiens, UniProt Q96Q40)
T3 construct: gene CDK15
Summary of the method: as §1

SMILES: CNS(=O)(=O)c1ccc(N(C)C)c(Nc2ncnc3cc(OC)c(OC)cc23)c1 [compound 7, 3-((6,7-dimethoxyquinazolin-4-yl)amino)-4-(dimethylamino)-N-methylbenzenesulfonamide]
- inhibition at 1 µM [1]: 10%
- inhibition at 1 µM [2]: 0%
- inhibition at 1 µM [3]: 5%
- inhibition at 1 µM [4]: 0%
- inhibition at 1 µM [5]: 0%
- inhibition at 1 µM [6]: 5%
- inhibition at 1 µM [7]: 0%
- inhibition at 1 µM [8]: 0%
- inhibition at 1 µM [9]: 0%
- inhibition at 1 µM [10]: 0%
- inhibition at 1 µM [11]: 0%
- inhibition at 1 µM [12]: 12%
- inhibition at 1 µM [13]: 0%
- inhibition at 1 µM [14]: 53%
- inhibition at 1 µM [15]: 0%
- inhibition at 1 µM [16]: 26%
- inhibition at 1 µM [17]: 17%
- inhibition at 1 µM [18]: 0%
- inhibition at 1 µM [19]: 3%
- inhibition at 1 µM [20]: 0%
- inhibition at 1 µM [21]: 0%
- inhibition at 1 µM [22]: 30%
- inhibition at 1 µM [23]: 0%
- inhibition at 1 µM [24]: 0%
- inhibition at 1 µM [25]: 0%
